“Also recorded” adds a separate entry of the source.
Legend:
[1] = parameters: species or system C57Bl/6 mice; details: mouse, in vivo
Experimental: (§1) For PTH administration, 6-8 week old wild type C57/B male mice were used. Rat PTH (1-34) (80 μg/Kg of body weight) was injected intraperitoneally 5×/week for 4 weeks (n=5). Control mice (n=4) were injected with an equivalent volume of vehicle. At the end of the treatment period, ionized serum calcium was measured by the Ciba/Corning 634 Ca^++/pH analyzer, and, after euthanasia, the hind limbs and forelimbs were dissected and utilized for cytologic and histologic analysis.

[2] = tested on: C57Bl/6 stroma and hematopoietic cells (LTC-IC); assay: LTC-IC assay on wild-type stroma, in vitro treatment with PTH; type: cell-based, mouse
Experimental: Murine bone marrow stromal cells from confluent cultures were irradiated (15Gy) and plated at a concentration of 20,000 cells/well in 96-well plates in long-term culture medium. Cells were then seeded into the plates in two-fold serial limiting dilutions and cultured at 33° C./5% CO2 in a humidified atmosphere. Cultures were maintained for 5 weeks, changing half of the medium in the wells weekly. Following this, the medium was replaced with methylcellulose containing medium supplemented with recombinant cytokines as described above, then scored for colony growth ten days following the addition of the medium.
LTC-IC assays were performed using wild-type stroma and hematopoietic cells. […] After fixation in 10% Neutral Formalin Buffer for 30 minutes at room temperature, alkaline phosphatase activity was determined histochemically by incubation for 45 minutes at RT with a mixture of 0.1 mg/ml naphthol AS-MX phosphate (Sigma), 0.5% N,N-dimethylformamide, 0.6 mg/ml red violet LB salt (Sigma) in 0.1 M Tris-HCl (pH 8.5). Alkaline phosphatase positive cells were counted at day 10 of culture, when the cultures were subconfluent and individual cells could be identified. […]

[3] = tested on: HSC pool in the bone marrow; assay: HSC pool in bone marrow following chemotherapy (competitive transplant); type: in vivo, C57Bl/6 mice
Experimental: Wild-type C57Bl/6 mice were treated with 5 mg of cyclophosphamide (Day 1). The day following injection of cyclophosphamide, mice received no treatment or were treated for 8 days with G-CSF (5 μg/day), 11 days with PTH (80 μg/kg/day) or a combination of G-CSF plus PTH. Mice that received a combination of both G-CSF and PTH received G-CSF treatment for 8 days and PTH treatment for 11 days. Following this treatment protocol, mice were injected with cyclophosphamide on Day 15 and treated with G-CSF, PTH or G-CSF and PTH as described above. The treatment protocol was then repeated for two subsequent cycles, as outlined in FIG. 7.
At the end of the four-cycle treatment with cyclophosphamide and G-CSF/PTH, the bone marrow was removed from the treated mice and competitive transplants into B6.SJL mice were performed to measure the maintenance of the HSC pool in the bone marrow. This involved mixing 5×10^5 BM cells from the treated C57Bl/6 mice (CD45.2) with 2.5×10^5 BM cells from the B6.SJL mice (CD45.1). These cells were then injected into lethally irradiated B6.SJL mice. Eighteen weeks following injection of the cells, peripheral blood was collected from the mice and the relative contribution of the HSCs from the treated animals was measured by flow cytometry for the CD45.2^+ cells. To assess the ability of the HSCs to be mobilized into the peripheral circulation, one week following treatment mice were mobilized with G-CSF (5 μg/day) for 5 days. Peripheral blood (300 μl) was collected from these mice and mixed with 2.5×10^5 BM cells from a B6.SJL mouse. These cells were injected into a lethally irradiated B6.SJL host. Eighteen weeks following injection of the cells, peripheral blood was collected from the mice and the relative contribution of the HSCs from the treated animals was measured by flow cytometry for the CD45.2^+ cells.

[4] = tested on: hematopoietic progenitors (CFU-C); assay: In vivo PTH administration: CFU-C assay; parameters: species or system C57Bl/6 mice; details: four weeks PTH; P=0.780, FIG. 5g
Experimental: Mononuclear cells were isolated from the bone marrow and cultured at 10^4 cells/ml in the following medium: 0.9% methylcellulose, 15% FBS, 1% BSA, 10 μg/ml rh insulin, 200 μg/ml human transferrin, 10^−4 M 2-mercaptoethanol, 2 mM L-glutamine, 50 ng/ml rmSCF, 10 ng/ml rmIL-3, 10 ng/ml rhIL-6 and 3 units/ml rhEpo (M3434; Stem Cell Technologies, Vancouver, Canada). At day 10, the total number of colonies were counted and reported as total CFU-Cs.
as §1
As treatment of stromal cells with PTH led to an increase in the ability of the stromal cell population to support hematopoietic stem cells, it was investigated whether these effects could be recapitulated in vivo. Wild-type C57Bl/6 mice were injected daily with PTH using an intermittent dosing schedule known to increase osteoblasts, and the frequencies of LTC-ICs in the bone marrow were measured. […]

In the case of Rat PTH (1-34), the “hypercalcemia by serum calcium measurements” value [1] is reported as “no evidence of hypercalcemia”, the “ability of stroma to support LTC-ICs” value ([2]; PTH 10^-7 M present during expansion of the stromal population, P=0.004, FIG. 5a) is reported as “enhanced the ability of the stroma to support LTC-ICs; also recorded: increasing LTC-IC” and the LTC-IC support ([2]; stromal cells expanded in the absence of PTH, or PTH added at the same time as the hematopoietic cells) is reported as “the effect was not seen”. For the same substance, the “HSC pool in the bone marrow following myelotoxic chemotherapy” value ([3]; PTH, non-G-CSF treated animals) was “increased the HSC pool”, the “HSC pool in the bone marrow following chemotherapy” value ([3]; concurrent treatment with PTH and G-CSF) was “retention of the HSC pool” and the “level of hematopoietic progenitors by CFU-C assay” value [4] was “did not affect”.

Source: patent US8802104B2, “Parathyroid hormone receptor activation and stem and progenitor cell expansion” (The General Hospital Corporation, priority 2002, dated 2014)
